{"source": "patent US6235707A", "about": "“Anticoagulant peptidyl-arginine aldehyde derivatives” (Gyogyszerkutato Intezet Kft., priority 1996, dated 2001)", "key": {"[1]": {"tested_on": "New Zealand white rabbits", "test": "anticoagulant and platelet aggregation inhibiting effect in rabbits ex vivo, time course", "parameters": "species or system rabbit", "settings": "p.o. 5 mg/kg", "procedure": "(§1) The anticoagulant and platelet aggregation inhibiting effect of the compounds of general formula (I) was studied in New Zealand white rabbits ex vivo according to D. Bagdy et al. [Thromb. Haemost. 67, 357 (1992)]. The compounds were dissolved in buffered isotonic saline solution and administered i.v. (0,04-5.0 mg/kg) or by infusion (0.25-5.0 mg/kg/h) or subcutaneously (0.5-6.0 mg/kg) or p.o. (2.5-20 mg/kg). The effect of the compounds was detectable already within 30 minutes following p.o. administration, peak values were attained after 60-180 minutes and the therapeutic level was maintained dose-dependently for 3→6 hours.\n(§2) The in vivo effect of ethoxycarbonyl-3-cyclobutyl-D-alanyl-L-prolyl-L-arginine aldehyde (1) is presented in detail in Tables 6 and 7. The corresponding values of C1 are listed as controls. The compound was administered p.o. in doses of 5 mg/kg. The blood samples drawn from the caudal vein in every 30-60 minutes were analysed. The whole blood clotting time (WBCT) and the inhibition of thrombin-induced blood platelet aggregation (PAI) were determined. The activated partial thromboplastin time (APTT) and the thrombin time (TT) in the citrate plasma obtained from the blood sample were also measured. The APTT and TT values are compiled in Table 6 and the WBCT and PAI values in Table 7."}, "[2]": {"target": "thrombin (Homo sapiens, UniProt P00734)", "test": "thrombin time (TT) plasma clotting test", "format": "biochemical", "settings": "Table 3; twofold prolongation compared to control; read-out: A: anticoagulant IC50, TT", "procedure": "(§3) Anticoagulant activity (i.e. inhibition of the proteolytic reactions in the process) is measured by anticoagulant tests, e.g. in the thrombin time (TT), activated partial thromboplastin time (APTT) and prothrombin time (PT) tests [E. J. W. Bovie et al., Mayo Clinic Laboratory Manual of Haemostasis; W. B. Saunders Co., Philadelphia (1971)]. Plasma, inhibited in spontaneous coagulation, e.g. citrate-plasma, is made to coagulate and the required coagulation time is measured. Upon the action of anticoagulants the coagulation time is prolonged proportionally to the inhibition of the reaction(s) in the process. The anticoagulant effect can be characterised by the substance concentration required to prolong the coagulation time twofold compared to the control (IC50). The effect of anticoagulants on individual coagulant proteases is measured by the amidolytic method [R. Lottenberg et al., Methods in Enzymol. 80, 341 (1981); G. Cleason, Blood Coagulation and Fibrinolysis 5, 411 (1994)]. The isolated active factor (e.g. thrombin, fXa) and its chromogen or fluorogen peptide-amide substrate are reacted in the presence or absence of the inhibitor, resp. The enzyme inhibiting action is characterised by the inhibitory constant (IC50) measured during amidolysis.\nIn the TT test coagulation is initiated by the thrombin added to the citrate plasma. In the system 22 pmol/ml of thrombin is functioning and its inhibition can be measured on the fibrinogen (one of the natural substrates of thrombin) in the presence of plasma components. In the APTT and PT tests the full coagulation process takes place. Depending on the activator fX is activated either by the extrinsic or the intrinsic pathway. The generated fXa activates prothrombin to thrombin which, in turn, triggers plasma coagulation. The coagulation time is prolonged if the enzymes or one of them is inhibited by the inhibitor. In the APTT and PT tests at most 40 pmol/ml Xa can be generated (this is the full amount of factor X present in both systems) while 150 pmol/ml (APTT) and 350 pmol/ml (PT) of thrombin are generated [B. Kaiser et al., Thromb. Res. 65, 157 (1992)].\n(§4) The in vitro anticoagulant effects of the compounds of general formula (I) was measured by the prothrombin time (PT), activated partial thromboplastin time (APTT) and thrombin time (TT) tests [D. Bagdy et al., Thromb. Haemost. 67, 325 (1992)]. The fxa-inhibiting effect of the compounds was also determined using the Bz-Ile-Glu-Gly-Arg-pNA chromogen substrate (see method M6)."}, "[3]": {"target": "tissue plasminogen activator (tPA) (Homo sapiens, UniProt P00750)", "sequence (P00750 36-562, species assumed)": "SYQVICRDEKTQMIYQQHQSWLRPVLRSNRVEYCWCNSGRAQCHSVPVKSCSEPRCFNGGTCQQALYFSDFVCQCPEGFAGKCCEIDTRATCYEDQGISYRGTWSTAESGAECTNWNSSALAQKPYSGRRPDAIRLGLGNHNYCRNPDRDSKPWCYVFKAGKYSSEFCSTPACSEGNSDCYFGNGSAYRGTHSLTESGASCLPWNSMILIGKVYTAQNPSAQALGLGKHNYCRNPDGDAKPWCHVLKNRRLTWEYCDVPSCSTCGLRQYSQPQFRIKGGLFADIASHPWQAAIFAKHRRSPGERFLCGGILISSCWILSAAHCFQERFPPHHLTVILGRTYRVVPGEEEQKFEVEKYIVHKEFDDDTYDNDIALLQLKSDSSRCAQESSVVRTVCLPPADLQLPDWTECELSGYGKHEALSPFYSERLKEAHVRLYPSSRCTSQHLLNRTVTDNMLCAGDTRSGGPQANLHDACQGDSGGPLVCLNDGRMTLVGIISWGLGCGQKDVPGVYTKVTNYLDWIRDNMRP", "test": "fibrin-plate method, plasmin formation induced by tPA", "format": "biochemical", "from_the_text": "(§5) The inhibitory effect of the new compounds of the invention on plasmin (PL) as well as on plasmin formation induced by tissue plasminogen activator (tPA) and urokinase (UK) was examined by the fibrin-plate method [D. Bagdy et al.: Thromb. Haemost. 67, 325 (1992)]. Compounds C1 and C5 served as controls. […] V. Jackson et al.: J. Cardiovasc. Pharmacol. 21, 587 (1993))]. In Table 4 the results obtained with the new compounds 1 and 2 as well as those with controls C1 and C5 are presented as an example."}, "[4]": {"target": "T1, isolated human fXa (Homo sapiens, UniProt P00742)", "T1 construct": "The isolated active factor (e.g. thrombin, fXa) and its chromogen or fluorogen peptide-amide substrate are reacted; purchased SIGMA", "T1 sequence (P00742 235-488 limits assumed)": "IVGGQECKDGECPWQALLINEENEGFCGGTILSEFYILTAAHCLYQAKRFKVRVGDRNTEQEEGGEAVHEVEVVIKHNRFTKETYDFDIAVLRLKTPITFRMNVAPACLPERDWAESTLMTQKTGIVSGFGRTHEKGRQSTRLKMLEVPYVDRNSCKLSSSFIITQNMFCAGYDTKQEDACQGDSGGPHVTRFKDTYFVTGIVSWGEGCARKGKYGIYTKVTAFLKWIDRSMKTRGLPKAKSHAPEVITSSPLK", "T1 sequence (P00742 41-179 partner limits assumed)": "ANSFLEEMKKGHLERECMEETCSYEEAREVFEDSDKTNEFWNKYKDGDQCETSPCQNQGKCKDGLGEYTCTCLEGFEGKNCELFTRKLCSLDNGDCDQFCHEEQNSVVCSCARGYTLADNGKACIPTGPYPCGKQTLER", "test": "fXa inhibition in solution, amidolytic method on Bz-Ile-Glu-Gly-Arg-pNA chromogen substrate (Method M6)", "format": "biochemical", "settings": "Table 3; isolated human fXa, Bz-Ile-Glu-Gly-Arg-pNA; read-out: B: fXa inhibiting IC50", "procedure": "as §3, §4\nDetermination of Factor Xa Inhibition in Solution on a 96-well Microtitre Plate\na) By means of phosphate buffer (0.1M sodium phosphate and 0.05M sodium chloride, pH=7.4) 1.3 E/ml solution is prepared from human factor Xa (SIGMA), and 0.1-1.0-10 and 100 μg/ml solutions from the peptide inhibitors. The Bz-Ile-Glu-Gly-Arg-pNA substrate is used in distilled water solution ([…]).\nb) From the control and the peptide inhibitor solutions (3 parallel samples of each concentration) 30-30 μl aliquots are placed into the wells. 30 μl of factor Xa, 90 μl of buffer and 150 μl of substrate are added to the peptide solution and the extinction is determined after 10 min. at 405 nm. Thereafter the steps are the same as in M2/c."}, "[5]": {"tested_on": "New Zealand white rabbits", "test": "ex vivo TT in citrate plasma of rabbits after p.o. dosing", "parameters": "species or system rabbit", "settings": "p.o. 5 mg/kg", "procedure": "as §1, §2"}, "[6]": {"target": "plasmin (PL) (Homo sapiens, UniProt P00747)", "sequence (P00747 581-810 limits assumed, species assumed)": "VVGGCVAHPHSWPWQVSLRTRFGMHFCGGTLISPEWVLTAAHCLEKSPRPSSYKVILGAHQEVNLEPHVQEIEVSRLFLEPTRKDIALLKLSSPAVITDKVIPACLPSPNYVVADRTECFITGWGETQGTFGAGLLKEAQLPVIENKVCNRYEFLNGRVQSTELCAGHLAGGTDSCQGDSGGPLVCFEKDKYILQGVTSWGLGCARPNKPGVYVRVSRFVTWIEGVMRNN", "sequence (P00747 97-580 partner limits assumed, species assumed)": "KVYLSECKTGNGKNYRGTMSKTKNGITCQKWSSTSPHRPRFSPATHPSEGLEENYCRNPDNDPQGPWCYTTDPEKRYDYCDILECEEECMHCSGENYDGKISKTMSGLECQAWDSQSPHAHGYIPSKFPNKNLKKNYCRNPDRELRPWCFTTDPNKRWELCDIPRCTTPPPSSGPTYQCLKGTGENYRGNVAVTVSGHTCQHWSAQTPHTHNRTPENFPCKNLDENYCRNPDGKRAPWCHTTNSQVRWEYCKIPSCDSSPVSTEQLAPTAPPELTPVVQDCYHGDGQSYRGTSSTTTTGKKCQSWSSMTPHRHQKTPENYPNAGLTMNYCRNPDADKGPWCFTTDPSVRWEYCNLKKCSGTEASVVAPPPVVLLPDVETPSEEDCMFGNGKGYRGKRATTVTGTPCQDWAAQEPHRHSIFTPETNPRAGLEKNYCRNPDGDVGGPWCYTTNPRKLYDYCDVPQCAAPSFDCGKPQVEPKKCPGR", "test": "fibrin-plate method, plasmin", "format": "biochemical", "from_the_text": "as §5"}, "[7]": {"settings": "fibrin plate, hydrolysed area reduced to 50% of control"}, "[8]": {"settings": "related to the activity of C1 (1/IC50 = 1)"}}, "note": "pIC50: −log10 of the molar value.", "data": [{"compound": "CCOC(=O)N[C@H](CC1CCC1)C(=O)N1CCC[C@H]1C(=O)N[C@H](C=O)CCCNC(=N)N", "note": "[Example 1, Ethoxycarbonyl-3-cyclobutyl-D-alanyl-L-prolyl-L-arginine aldehyde]", "values": [{"measurement": "duration of anticoagulant and antiaggregation effect compared to control C1", "setting": "[1]", "result": "longer-lasting"}, {"measurement": "pIC50", "setting": "[2]", "result": 6.96}, {"measurement": "pIC50", "setting": "[3]; [7]", "result": 4.57}, {"measurement": "B: relative efficiency, tPA", "setting": "[3]; [8]", "result": 4.9}, {"measurement": "activity against tPA, times lower than that of compound C5", "setting": "[3]; text b147, second of three enzymes", "result": 4.5, "unit": "times"}, {"measurement": "pIC50", "setting": "[4]", "result": 7.40}, {"measurement": "TT relative clotting time", "setting": "[5]; 0 min", "result": 1.0}, {"measurement": "TT relative clotting time", "setting": "[5]; 30 min", "result": "8.30 ± 5.67"}, {"measurement": "TT relative clotting time", "setting": "[5]; 45 min", "result": "9.04 ± 5.50"}, {"measurement": "TT relative clotting time", "setting": "[5]; 60 min", "result": "9.28 ± 5.45"}, {"measurement": "TT relative clotting time", "setting": "[5]; 90 min", "result": "13.58 ± 5.43"}, {"measurement": "TT relative clotting time", "setting": "[5]; 120 min", "result": "16.33 ± 5.89"}, {"measurement": "TT relative clotting time", "setting": "[5]; 180 min", "result": "6.95 ± 3.73"}, {"measurement": "TT relative clotting time", "setting": "[5]; 240 min", "result": "2.03 ± 0.42"}, {"measurement": "TT relative clotting time", "setting": "[5]; 300 min", "result": "1.77 ± 0.50"}, {"measurement": "pIC50", "setting": "[6]; [7]", "result": 4.41}, {"measurement": "B: relative efficiency, PL", "setting": "[6]; [8]", "result": 1.4}, {"measurement": "activity against PL, times lower than that of compound C5", "setting": "[6]; text b147, first of three enzymes", "result": 3.2, "unit": "times"}]}]}
